Tests used:
[1] = system: non-tumorigenic primary human bladder epithelial cells (ATCC-PCS-420-010); assay: BrdU cell proliferation assay (BrdU incorporation into DNA); type: cell-based; conditions: cells starved 48 hours in low nutrient (0.5%) medium; for DNA synthesis as measured by BrdU incorporation: BrdU added concurrently
Protocol: FIG. 1 presents a histogram plot depicting results from a BrdU cell proliferation assay. Primary human bladder epithelial cells were nutrient starved as indicated and treated with GLP-2 for 24 hours at the indicated concentrations
FIG. 2 presents a histogram plot depicting results from a BrdU cell proliferation assay. Primary human bladder epithelial cells were nutrient starved as indicated and treated with GLP-2 for 48 hours at the indicated concentrations.
URG-801/GLP-2 mediated cell proliferation was detected by assaying BrdU incorporation into DNA using non-tumorigenic primary human bladder epithelial cells. An exemplary non-tumorigenic primary human bladder epithelial cell line is ATCC-PCS-420-010, which may be purchased from the American Type Culture Collection (ATCC) repository. Briefly, ATCC-PCS-420-010 cells were starved for 48 hours in low nutrient (0.5%) medium and then GLP-2 was added to the culture medium at the indicated concentrations and the cells were cultured for an additional 24 hours in the presence of GLP-2. As indicated in the timeline presented in FIG. 1, bromodeoxyuridine (BrdU) was added concurrently with the GLP-2.
To investigate further parameters affecting GLP-2 induced bladder epithelial cell proliferation, the duration of culturing in the presence of GLP-2 was extended. In this experimental protocol, ATCC-PCS-420-010 cells were starved for 48 hours in low nutrient (0.5%) medium and then GLP-2 was added to the culture medium at the indicated concentrations and the cells were cultured for ab additional 48 hours in the presence of GLP-2. As indicated in the timeline presented in FIG. 2, BrdU was added concurrently with the GLP-2.

[2] = in vivo; cited from earlier work
intestinal epithelium = conditions: normal and treated rat inflammatory bowel disease models and ischemic reperfusion injured mice; cited from earlier work
GLP-2R = molecular target: T1, GLP-2R (Rattus norvegicus, UniProt Q9Z0W0); conditions: iv injected radiolabeled GLP-2, autoradiography; cited from earlier work
T1 construct: host or cells: Tissues of the living animal (kidneys, liver, gastrointestinal tract and others), endogenous receptor
T1 sequence (Q9Z0W0 1-550): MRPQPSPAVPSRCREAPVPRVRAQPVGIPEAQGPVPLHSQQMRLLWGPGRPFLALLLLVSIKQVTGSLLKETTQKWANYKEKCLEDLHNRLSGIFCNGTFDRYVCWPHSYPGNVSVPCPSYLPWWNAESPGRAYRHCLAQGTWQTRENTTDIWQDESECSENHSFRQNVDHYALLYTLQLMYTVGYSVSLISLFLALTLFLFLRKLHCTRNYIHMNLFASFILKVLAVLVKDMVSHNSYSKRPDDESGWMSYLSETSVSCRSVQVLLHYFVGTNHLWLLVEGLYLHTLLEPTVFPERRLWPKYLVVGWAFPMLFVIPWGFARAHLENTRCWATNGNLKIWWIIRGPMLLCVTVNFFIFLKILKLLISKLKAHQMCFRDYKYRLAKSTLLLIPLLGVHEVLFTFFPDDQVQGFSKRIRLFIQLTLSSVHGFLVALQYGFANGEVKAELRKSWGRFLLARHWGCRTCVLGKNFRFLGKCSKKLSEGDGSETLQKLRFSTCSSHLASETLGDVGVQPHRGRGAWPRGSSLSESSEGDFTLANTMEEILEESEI

[3] = phase IIB study; cited from earlier work
[4] = then cultured 48 hours with GLP-2, FIG. 2

| Substance | DNA synthesis as measured by BrdU incorporation ([1]; then cultured 24 hours with GLP-2, FIG. 1) | DNA synthesis as measured by BrdU incorporation [1, 4] | GLP-2 concentration at which BrdU incorporation peaked (bell shaped curve) [1, 4] [µM] | half life in circulation [2] [min] | effect on intestinal/mucosal mass and damage (intestinal epithelium) | binding to submandibular gland, lung, brain, heart, adipose tissue, skeletal muscle, uterus, ovary, urinary bladder, adrenal gland, thyroid gland, or skin (GLP-2R) | tissues to which radiolabeled GLP-2 binds (GLP-2R) | efficacy in chemotherapy-induced diarrhea [3] |
| --- | --- | --- | --- | --- | --- | --- | --- | --- |
| HADGSFSDEMNTILDNLAARDFINWLIQTKITD [GLP-2] | dose dependent increase in DNA synthesis | dose dependent increase in DNA synthesis | 0.1 | 3 to 7 | enhanced intestinal/mucosal mass and attenuated damage | does not bind | binds predominantly to the kidneys, liver, and gastrointestinal tract |  |
| elsiglutide |  |  |  |  |  |  |  | failed to reach statistical significance |
